Test results: patent US11230527B2, “Solid forms of 2-(5-(4-(2-morpholinoethoxy)phenyl)pyridin-2-yl)-n- benzylacetamide” (Athenex HK Innovative Limited, priority 2017, dated 2022)
Values after ≈ are worked out from the molar mass of the structure shown. Like-named read-outs stand apart in the source and are kept apart here.

Tests used:
Format in all cases: physicochemical
[1] = HPLC chemical stability after storage at various conditions; conditions: for Area Percent at 248 nm T1 week: 1 week; for Area Percent at 248 nm T2 week: 2 weeks; for Area Percent at 248 nm T4 week: 4 weeks; for Area Percent at 248 nm T8 week: 8 weeks
Procedure: High-performance Liquid Chromatography (HPLC) analysis was performed to determine the chemical stability of Forms A, B, and C of Compound A after storage at various conditions, using an Agilent 1100 system with DAD. Chemical stability was estimated by measuring and comparing the area percent of the material peak at various time points. For High-performance Liquid Chromatography (HPLC) analysis, an Agilent 1100 system with DAD was used.

[2] = Dynamic Vapor Sorption (DVS)
Procedure: Dynamic Vapor Sorption (DVS) was measured using a SMS (Surface Measurement Systems) DVS Intrinsic. The test was performed at 25° C. while the RH was varied from 0% to 95% at 10% increments in the range of 0% RH-90% RH and at 5% increment up to 95% RH. The change in mass after each increase or decrease in the RH was recorded as a percentage of the original mass of the starting material. Dynamic Vapor Sorption (DVS) was measured using a SMS (Surface Measurement Systems) DVS Intrinsic, using the following parameters: [table]

[3] = XRPD physical form stability under storage conditions; conditions: up to eight weeks
Procedure: XRPD analysis is carried out using a diffractometer running in reflection mode. The 2-theta position is calibrated against a standard before running the experiment. XRPD analysis was carried out on a Panalytical X'Pert^3 Powder XRPD on a Si zero-background holder, scanning the samples between 3 and 40° 2-theta. The 2-theta position was calibrated against Panalytical 640 Si powder standard. The test material was gently compressed on a glass disc inserted into a sample holder. The sample was then loaded into a Panalytical X'Pert^3 Powder XRPD diffractometer running in reflection mode and analyzed, using the following experimental conditions.

Solubility estimation = experiment: Solubility estimation
Procedure: Solubility of the solid forms of the present application in a variety of solvents is measured. Solvent is added to a sample until the total volume reaches 100 μL, followed by 100 μL per step until the sample is dissolved or the concentration is less than <1.0 mg/mL. The approximate solubility is then calculated.
Solubility of the solid forms of the present application in a variety of solvents was measured according to the following procedures. A sample (˜2 mg) was weighed into a 4-mL glass vial. Solvent was added into the vial stepwise at 50 μL per step until the total volume was 100 μL, followed by 100 μL per step until concentration was less than 1.0 mg/mL. The solutions were mixed thoroughly after each addition by sonication for 2 minutes and vortexing for 1 minute. The addition of solvent was complete if the sample was dissolved or the concentration was <1.0 mg/mL. The volumes of solvent (V1 and V2) were recorded, and approximate solubility was calculated.

SMILES: O=C(Cc1ccc(-c2ccc(OCCN3CCOCC3)cc2)cn1)NCc1ccccc1 [Form C, 2-(5-(4-(2-morpholinoethoxy)phenyl)pyridin-2-yl)-N-benzylacetamide]
- Area Percent at 248 nm T1 week ([1]; 25° C./60% RH): 99.9 Area Percent
- Area Percent at 248 nm T2 week ([1]; 25° C./60% RH): 99.9 Area Percent
- Area Percent at 248 nm T4 week ([1]; 25° C./60% RH): 99.8 Area Percent
- Area Percent at 248 nm T8 week ([1]; 25° C./60% RH): 99.9 Area Percent
- Area Percent at 248 nm T0 ([1]; 25° C./60% RH): 99.8 Area Percent
- Area Percent at 248 nm T1 week ([1]; 40° C./75% RH): 99.8 Area Percent
- Area Percent at 248 nm T2 week ([1]; 40° C./75% RH): 99.8 Area Percent
- Area Percent at 248 nm T4 week ([1]; 40° C./75% RH): 99.9 Area Percent
- Area Percent at 248 nm T8 week ([1]; 40° C./75% RH): 99.9 Area Percent
- Area Percent at 248 nm T0 ([1]; 40° C./75% RH): 99.8 Area Percent
- Area Percent at 248 nm T1 week ([1]; 55° C./75% RH): 99.9 Area Percent
- Area Percent at 248 nm T2 week ([1]; 55° C./75% RH): 99.8 Area Percent
- Area Percent at 248 nm T4 week ([1]; 55° C./75% RH): 99.8 Area Percent
- Area Percent at 248 nm T8 week ([1]; 55° C./75% RH): 99.9 Area Percent
- Area Percent at 248 nm T0 ([1]; 55° C./75% RH): 99.8 Area Percent
- Area Percent at 248 nm T1 week ([1]; Ambient): 99.8 Area Percent
- Area Percent at 248 nm T2 week ([1]; Ambient): 99.8 Area Percent
- Area Percent at 248 nm T4 week ([1]; Ambient): 99.8 Area Percent
- Area Percent at 248 nm T8 week ([1]; Ambient): 99.9 Area Percent
- Area Percent at 248 nm T0 ([1]; Ambient): 99.8 Area Percent
- change in HPLC area percent purity (LCAP) ([1]; selected storage conditions, time points over eight-week study): no significant decrease
- hygroscopicity [2]: non-hygroscopic
- XRPD pattern after exposure to DVS experiment ([2]; 25° C. and RH up to 95%): does not change
- water uptake ([2]; between 0 and 80% RH at between 25° C. and 45° C.): less than 0.2 % w/w
- change in physical form (XRPD) ([3]; 25° C./60% RH): no change in physical form
- change in physical form (XRPD) ([3]; 40° C./75% RH): no change in physical form
- change in physical form (XRPD) ([3]; 55° C./75% RH): no change in physical form
- change in physical form (XRPD) ([3]; ambient conditions): no change in physical form
- solubility (Solubility estimation; 1,4-Dioxane, organic solvent or mixture, thermodynamic from solid, 1,4-Dioxane, read-out: Solubility): 12600 to 25100 µg/mL (≈ 29.2 to 58.2 mM)
- solubility (Solubility estimation; 2-MeTHF, organic solvent or mixture, thermodynamic from solid, 2-MeTHF, read-out: Solubility): 5100 to 6380 µg/mL (≈ 11.8 to 14.8 mM)
- solubility (Solubility estimation; ACN, organic solvent or mixture, thermodynamic from solid, ACN, read-out: Solubility): 4430 to 5540 µg/mL (≈ 10.3 to 12.8 mM)
- solubility (Solubility estimation; Acetone, organic solvent or mixture, thermodynamic from solid, Acetone, read-out: Solubility): 5690 to 8590 µg/mL (≈ 13.2 to 19.9 mM)
- solubility (Solubility estimation; CHCl3, organic solvent or mixture, thermodynamic from solid, CHCl3, read-out: Solubility): 25900 to 51800 µg/mL (≈ 60 to 120 mM)
- solubility (Solubility estimation; DCM, organic solvent or mixture, thermodynamic from solid, DCM, read-out: Solubility): 1330 to 1440 µg/mL (≈ 3.08 to 3.34 mM)
- solubility (Solubility estimation; EtOAc, organic solvent or mixture, thermodynamic from solid, EtOAc, read-out: Solubility): 2370 to 2630 µg/mL (≈ 5.49 to 6.09 mM)
- solubility (Solubility estimation; EtOH, organic solvent or mixture, thermodynamic from solid, EtOH, read-out: Solubility): 5140 to 6420 µg/mL (≈ 11.9 to 14.9 mM)
- solubility (Solubility estimation; H2O, water, thermodynamic from solid, H2O, read-out: Solubility): < 1000 µg/mL
- solubility (Solubility estimation; IPA, organic solvent or mixture, thermodynamic from solid, IPA, read-out: Solubility): 1300 to 1390 µg/mL (≈ 3.01 to 3.22 mM)
- solubility (Solubility estimation; IPAc, organic solvent or mixture, thermodynamic from solid, IPAc, read-out: Solubility): 1080 to 1150 µg/mL (≈ 2.5 to 2.66 mM)
- solubility (Solubility estimation; MIBK, organic solvent or mixture, thermodynamic from solid, MIBK, read-out: Solubility): 1610 to 1760 µg/mL (≈ 3.73 to 4.08 mM)
- solubility (Solubility estimation; MTBE, heated to 50° C.): soluble
- solubility (Solubility estimation; MTBE, organic solvent or mixture, thermodynamic from solid, MTBE, read-out: Solubility): < 1000 µg/mL
- solubility (Solubility estimation; MTBE, room temperature): insoluble
- solubility (Solubility estimation; MeOH, organic solvent or mixture, thermodynamic from solid, MeOH, read-out: Solubility): 9580 to 19200 µg/mL (≈ 22.2 to 44.4 mM)
- solubility (Solubility estimation; THF, organic solvent or mixture, thermodynamic from solid, THF, read-out: Solubility): 11000 to 22000 µg/mL (≈ 25.5 to 51 mM)
- solubility (Solubility estimation; n-Heptane, organic solvent or mixture, thermodynamic from solid, n-Heptane, read-out: Solubility): < 1000 µg/mL
- solubility (Solubility estimation; n-heptane, organic solvent or mixture, thermodynamic from solid, n-heptane, room temperature and when heated to 50° C., read-out: Solubility): < 1000 µg/mL
- solubility (Solubility estimation; organic solvent or mixture, thermodynamic from solid, methanol, ethanol, isopropanol, acetone, MIBK, ethyl acetate, isopropyl acetate, tetrahydrofuran, 2-Me-THF, 1,4-dioxane, acetonitrile, dichloromethane, chloroform, toluene, room temperature and 50° C., read-out: Solubility): > 1000 µg/mL
- solubility (Solubility estimation; toluene, organic solvent or mixture, thermodynamic from solid, toluene, read-out: Solubility): 1510 to 1610 µg/mL (≈ 3.5 to 3.73 mM)
- solubility (Solubility estimation; water, thermodynamic from solid, aqueous solution (water), room temperature and when heated to 50° C., read-out: Solubility): < 1000 µg/mL
